Measurements as given in patent US8470813B2, “Thiazoline and oxazoline derivatives and their methods of use” (AbbVie Inc., priority 2006, dated 2013).

How the values were obtained:
α7 nAChRs [1] = target: T1, α7 nAChRs (Homo sapiens, UniProt P36544); test: High-throughput calcium flux (FLIPR) assay using IMR-32 cells expressing endogenous α7 nAChRs; type: cell-based
T1 construct: IMR-32 cells endogenous expressing α7 nAChRs; host or cells: IMR-32 neuroblastoma cells
Description: (i) High-Throughput Calcium Flux Assays Using Cells Expressing Endogenous α7 nAChRs
As such, positive allosteric modulators can be identified or nicotinic acetylcholine receptor agonists can be identified by using IMR-32 cells that endogenously express various nicotinic receptors including α7 nAChRs. […] Accordingly, allosteric modulator compounds described herein can be identified using fluorescence-based throughput functional assay using cell lines such as IMR-32 neuroblastoma or primary dissociated neurons. Although cell types such as IMR-32 neuroblastoma and neurons are known to contain several nicotinic receptor subunits, α7 selective agonists in the present assay selectively stimulate calcium responses only in the presence of positive allosteric modulators. Any suitable selective α7 agonist can be used.
IMR-32 neuroblastoma cells (ATCC) were grown to confluency in 162 cm^2 tissue culture flasks in minimum essential media supplemented with 10% FBS and 1 mM sodium pyruvate, 0.1 mM non-essential amino acids and 1% antibiotic-antimycotic. The cells were then dissociated using cell dissociation buffer and 40 μl of 3.5×10^5 cells/ml cell suspension was plated (15,000 cells/well) into black plates with clear bottom and maintained for 48 hours in a tissue culture incubator at 37° C. under an atmosphere of 5% CO2: 95% air. […] Calcium flux was measured using calcium-3 assay kit (Molecular Devices, Sunnyvale, Calif.) or fluo-4. A stock solution of the dye was prepared by dissolving each vial supplied by the vendor in Hank's balanced salt solution buffer (HBSS) containing 20 mM HEPES. The stock solution was diluted 1:20 using the same buffer before use. The growth media was removed from the cells and loaded with 45 μl of the dye and incubated at room temperature for three hours. Fluorescence measurements were read simultaneously from all the wells by a Fluorometic Imaging Plate Reader (FLIPR) at an excitation wavelength of 480 nm and an emission wavelength of 520 nm. Baseline fluorescence was measured for the first 10 seconds at which 5× concentrations of modulator/test compounds were added to the cell plate and incubated for three minutes. The fluorescence intensity was captured every second for the first 1 minute followed by every 5 seconds for an additional 2 minutes. This procedure was followed by 20 μl of 4× concentration of agonist and readings were taken for a period of three minutes as described above.

α7 nAChRs [2] = target: T2, α7 nAChRs (Rattus norvegicus, UniProt Q05941); test: High-throughput phospho-ERK assay (in-cell western) using PC-12 cells expressing endogenous α7 nAChRs; type: cell-based; settings: in presence of selective α7 agonist, FIG. 4
T2 construct: cells expressing endogenous α7 nAChRs without the need for overexpressing recombinant receptors; host or cells: PC-12 rat pheochromocytoma cells
T2 sequence (Q05941 23-502): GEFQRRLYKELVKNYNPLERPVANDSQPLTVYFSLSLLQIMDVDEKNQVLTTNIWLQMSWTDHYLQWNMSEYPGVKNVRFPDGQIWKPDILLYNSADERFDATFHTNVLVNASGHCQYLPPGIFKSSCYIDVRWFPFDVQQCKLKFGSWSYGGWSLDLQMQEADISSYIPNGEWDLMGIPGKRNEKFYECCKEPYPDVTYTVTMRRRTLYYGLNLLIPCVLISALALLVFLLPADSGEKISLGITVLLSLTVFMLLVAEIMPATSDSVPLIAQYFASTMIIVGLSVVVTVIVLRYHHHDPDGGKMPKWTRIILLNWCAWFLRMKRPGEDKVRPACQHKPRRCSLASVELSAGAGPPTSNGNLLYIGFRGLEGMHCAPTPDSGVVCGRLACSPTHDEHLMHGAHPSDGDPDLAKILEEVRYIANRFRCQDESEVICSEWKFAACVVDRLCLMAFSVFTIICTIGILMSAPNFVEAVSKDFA
Method: To determine the effectiveness of compounds of formula (I) or (II), as allosteric modulators, the compounds of the invention were evaluated according to two high-throughput functional assays using (i) IMR-32 cells endogenous expressing α7 nAChRs and measuring Ca^2+ flux or membrane potential changes utilizing the fluorescence-imaging plate reader (FLIPR)-based assays and (ii) measurement of phospho-ERK activity using western blot assays. These assays allow for higher throughput screening of positive allosteric modulators using cells or cell lines expressing endogenous α7 nAChRs.
(ii) High-Throughput Phospho-Erk Assays Using Cells Expressing Endogenous α7 nAChRs
Rat pheochromocytoma (PC-12) cells (ATCC, Manassas, Va.) were cultured and maintained in F-12K media supplemented with 15% horse serum, 2.5% fetal calf serum, and 2 mM L-Glutamine in poly-D lysine coated dishes at 37° C. and 5% CO2. […]
PC-12 cells are treated for 10 minutes at 37° C. with test positive allosteric modulator compounds and then challenged with a selective α7 agonist for 5 minutes at 37° C. in a final volume of 100 μl/well, unless otherwise indicated. […] Well intensities were quantitated and phospho-ERK signals were normalized to total ERK signals by the Odyssey software. […]

T1 sequence (P36544 23-502): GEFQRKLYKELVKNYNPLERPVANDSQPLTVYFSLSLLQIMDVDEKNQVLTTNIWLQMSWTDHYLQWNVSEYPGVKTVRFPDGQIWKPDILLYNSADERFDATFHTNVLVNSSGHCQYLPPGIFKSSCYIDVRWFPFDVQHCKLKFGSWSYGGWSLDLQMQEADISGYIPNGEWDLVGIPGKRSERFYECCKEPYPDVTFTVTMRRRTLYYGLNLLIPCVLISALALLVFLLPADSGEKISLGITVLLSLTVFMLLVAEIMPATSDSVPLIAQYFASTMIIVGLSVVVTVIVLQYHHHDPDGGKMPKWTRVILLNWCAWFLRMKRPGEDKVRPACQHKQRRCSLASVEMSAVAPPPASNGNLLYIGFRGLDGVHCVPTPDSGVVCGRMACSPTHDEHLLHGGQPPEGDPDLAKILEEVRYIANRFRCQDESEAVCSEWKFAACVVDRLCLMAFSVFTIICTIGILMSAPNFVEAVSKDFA

## c1ccc(-c2nnc(N3CCN4CCC3CC4)o2)cc1 [4-(5-Phenyl-[1,3,4]oxadiazol-2-yl)-1,4-diaza-bicyclo[3.2.2]nonane, reference compound]
α7 nAChRs [1]; IMR-32 cells, absence of allosteric modulator, FIG. 3
  calcium response, agonist alone: did not trigger calcium responses

## Cc1cn(-c2ccc3c(c2)OC(F)(F)O3)/c(=N/C(=O)N(C)C)s1 [Example 9, N′-[(2Z)-3-(2,2-difluoro-1,3-benzodioxol-5-yl)-5-methyl-1,3-thiazol-2(3H)-ylidene]-N,N-dimethylurea]
α7 nAChRs [1]; IMR-32 cells, Example 9 10 μM with agonist 4-(5-phenyl-[1,3,4]oxadiazol-2-yl)-1,4-diaza-bicyclo[3.2.2]nonane, FIG. 1
  calcium fluorescence response, modulator co-applied with agonist: evoked calcium fluorescence response
α7 nAChRs [1]; IMR-32 cells, absence of α7 nAChR agonist, FIG. 2
  calcium response, modulator alone: did not trigger calcium responses
α7 nAChRs [1]; IMR-32 neuroblastoma cells, in presence of agonist 4-(5-phenyl-[1,3,4]oxadiazol-2-yl)-1,4-diaza-bicyclo[3.2.2]nonane, FIG. 2, read-out: EC50 value of the modulator (calcium fluorescence response)
  EC50: 3 µM
α7 nAChRs [2]
  ERK phosphorylation, concentration-response: evoke concentration-dependent increases in ERK phosphorylation

## CCN1C[C@]2(COC(=O)c3ccccc3N3C(=O)C[C@H](C)C3=O)CC[C@H](OC)[C@@]34[C@@H]5C[C@H]6[C@H](OC)[C@@H]5[C@](O)(C[C@@H]6OC)[C@@](O)([C@@H](OC)[C@H]23)[C@@H]14 [methyllycaconitine, reference compound]
α7 nAChRs [1]; IMR-32 cells
  effect of α7 selective antagonist on agonist plus modulator calcium response: abolishes response
